Results taken from patent EP4589010A1, “SCREENING METHOD FOR OFFENSIVE ODOR SUPPRESSING MATERIAL” (priority 2022, dated 2024).

Columns and labels:
[1] = system: broadly tuned olfactory receptor OR2W1; settings: cited from earlier work
[2] = system: cells that do not express olfactory receptors; assay: Luciferase assay, mock test; format: cell-based
Procedure: 0.05 µg of human olfactory receptor gene expression vector, 0.01 µg of RTP1S vector, and 0.01 µg of firefly luciferase vector pGloSensor™-22F cAMP Plasmid (Promega) containing CMV promoter were dissolved in 10 µL of Opti-MEM I (Gibco) to prepare a gene solution (per well). HEK293T cells were seeded at 100 µL per well in a 96-well plate (Biocoat, Corning) at a number of cells that reached subconfluence after 24 hours, and the gene solution was added to each well by lipofection according to the usage of Lipofectamine 3000 so that the cells were transfected with the gene and cultured at 37°C in a 5% carbon dioxide atmosphere for 24 hours. […] Then, 10 µL of 10 mM hexanal solution prepared in HEPES buffer supplemented with 300 µM CuCl2 and FBS was added to each well, and the changes in the response value of the luciferase activity over time were measured every minute immediately after the addition, thus obtaining the responses of approximately 400 human olfactory receptors to hexanal. The magnitude of the olfactory receptor response was expressed as a fold increase value obtained by dividing the maximum response value of luciferase activity that occurred after stimulation with hexanal by the luciferase activity before the stimulation with hexanal. […]

[3] = system: olfactory receptor OR51E1; assay: Luciferase (GloSensor cAMP) assay, response of olfactory receptor to hexanal; format: cell-based, human; settings: HEK293T cells expressing OR51E1; various hexanal concentrations; Figure 6
Procedure: (§1) 0.05 µg of human olfactory receptor gene expression vector, 0.01 µg of RTP1S vector, and 0.01 µg of firefly luciferase vector pGloSensor™-22F cAMP Plasmid (Promega) containing CMV promoter were dissolved in 10 µL of Opti-MEM I (Gibco) to prepare a gene solution (per well). HEK293T cells were seeded at 100 µL per well in a 96-well plate (Biocoat, Corning) at a number of cells that reached subconfluence after 24 hours, and the gene solution was added to each well by lipofection according to the usage of Lipofectamine 3000 so that the cells were transfected with the gene and cultured at 37°C in a 5% carbon dioxide atmosphere for 24 hours. After removal of the culture solution, the cells were washed once with HEPES buffer, and 100 µL of GloSensor™ cAMP Reagent (Promega), adjusted to a predetermined concentration with HEPES buffer supplemented with FBS, was added to each well, and allowed to stand for 2 hours at room temperature. Then, 10 µL of 10 mM hexanal solution prepared in HEPES buffer supplemented with 300 µM CuCl2 and FBS was added to each well, and the changes in the response value of the luciferase activity over time were measured every minute immediately after the addition, thus obtaining the responses of approximately 400 human olfactory receptors to hexanal. The magnitude of the olfactory receptor response was expressed as a fold increase value obtained by dividing the maximum response value of luciferase activity that occurred after stimulation with hexanal by the luciferase activity before the stimulation with hexanal. Accordingly, OR2C1, OR2J2, OR2J3, OR5K1, OR5P3 and OR51E1 were identified as candidate olfactory receptors responsive to hexanal. After that, an aroma compound as a sample was prepared in HEPES buffer supplemented with 300 µM CuCl2 and FBS to a concentration 10 times the final concentration. 10 µL this aroma compound stimulation solution was added to each well, and the changes in the luciferase activity over time were measured every minute immediately after the addition to obtain the responses of approximately 400 human olfactory receptors to the aroma compound. The magnitude of the response of the olfactory receptor was expressed as a fold increase value determined by dividing the maximum luciferase activity value that occurred by the stimulation with the aroma compound by the luciferase activity before the stimulation with the aroma compound.
(§2) The responses of hexanal, which is an offensive odor-causing substance, to the olfactory receptors OR2C1, OR2J2, OR2J3, OR5K1, OR5P3 and OR51E1 were measured at various concentrations by the luciferase activity assay described above.

olfactory receptor OR2J2 = assay: as above; format: cell-based, human; settings: HEK293T cells expressing OR2J2; various hexanal concentrations; Figure 2
Procedure: as §1, §2

olfactory receptor OR5K1 = assay: as above; format: cell-based, human; settings: HEK293T cells expressing OR5K1; various hexanal concentrations; Figure 4
Procedure: as §1, §2

olfactory receptor OR2J3 = assay: as above; format: cell-based, human; settings: HEK293T cells expressing OR2J3; various hexanal concentrations; Figure 3
Procedure: as §1, §2

olfactory receptor OR2C1 = assay: as above; format: cell-based, human; settings: HEK293T cells expressing OR2C1; various hexanal concentrations; Figure 1
Procedure: as §1, §2

olfactory receptor OR5P3 = assay: as above; format: cell-based, human; settings: HEK293T cells expressing OR5P3; various hexanal concentrations; Figure 5
Procedure: as §1, §2

SMILES | suppression of the OR2W1 response ([1]; masking agent against hexanal, Non-patent literature 6) | hexanal response of OR2W1 ([1]; in vitro tests, prior art) | response to hexanal in the mock test [2] | response of olfactory receptor OR51E1 to hexanal (fold increase value) [3] | response of olfactory receptor OR2J2 to hexanal (fold increase value) (olfactory receptor OR2J2) | response of olfactory receptor OR5K1 to hexanal (fold increase value) (olfactory receptor OR5K1) | response of olfactory receptor OR2J3 to hexanal (fold increase value) (olfactory receptor OR2J3) | response of olfactory receptor OR2C1 to hexanal (fold increase value) (olfactory receptor OR2C1) | response of olfactory receptor OR5P3 to hexanal (fold increase value) (olfactory receptor OR5P3)
CC1=CCC2CC1C2(C)C (stereo not drawn) [alpha-pinene] | suppress the OR2W1 response |  |  |  |  |  |  |  | 
CCCCCC=O [hexanal] |  | concentration-dependent hexanal response | no response was observed | concentration-dependent responses | concentration-dependent responses | concentration-dependent responses | concentration-dependent responses | concentration-dependent responses | concentration-dependent responses
